Among the data in patent publication US20050096308A1, “Antibacterial agents” (priority 2003, published 2005) are MIC values, retold here.

Each structure is given as a SMILES string. ≈ marks a conversion by molar mass, not a printed value.

Common to all, as to assay: Antibacterial assay (Test A), standard microtitration, MIC
Holding throughout (format): cell-based

Assay [1] has as its system H. influenzae HI-3542. The settings on record: Haemophilus influenzae, HI3542; Gram Negative Bacteria; strain HI-3542; read-out: Minimum Inhibitory Concentrations H. influenzae HI-3542. Here is the method: (§1) Test A—Antibacterial Assays
(§2) The compounds of the present invention were tested against an assortment of Gram-negative and Gram-positive organisms using standard microtitration techniques (Cohen et. al., Antimicrob., 1985;28:766; Heifetz, et. al., Antimicrob., 1974;6:124).

Assay [2] relates to E. coli MC4100. The settings on record: Escherichia coli; Gram Negative Bacteria; strain MC4100; read-out: Minimum Inhibitory Concentrations E. coli MC4100. The procedure:
as §1, §2

In assay [3] the test system is M. catarrhalis BC-3531. Conditions: Moraxella catarrhalis, BC3531; Gram Negative Bacteria; strain BC-3531; read-out: Minimum Inhibitory Concentrations M. catarrhalis BC-3531. Here is the method: as §1, §2
The test system of assay [4] is E. faecalis MGH-2. The settings on record: Enterococcus faecalis, MGH2; Gram Positive Bacteria; strain MGH-2; read-out: Minimum Inhibitory Concentrations E. faecalis MGH-2. The procedure: as §1, §2
Assay [5] concerns S pyogenes C203. The settings on record: Gram Positive Bacteria; strain C203; read-out: Minimum Inhibitory Concentrations S pyogenes C203. Here is the method: as §1, §2
Assay [6] has as its system S. aureus UC-76. Conditions: Staphylococcus aureus, UC76; Gram Positive Bacteria; strain UC-76; read-out: Minimum Inhibitory Concentrations S. aureus UC-76. The procedure: as §1, §2

On to `Cc1c(N2CC(O)C2)c(F)cc2c(=O)n(N)c(=O)n(C3CC3)c12` [drawing 118], for which the MIC in assay [1] was 32 µg/mL (≈ 99.9 µM); in assay [2], 1 µg/mL (≈ 3.12 µM); in assay [3], 1 µg/mL (≈ 3.12 µM).
As to `CC(C)C1(O)CN(c2c(F)cc3c(=O)n(N)c(=O)n(C4CC4)c3c2Cl)C1` [drawing 128], the MIC turned out to be 32 µg/mL (≈ 83.6 µM) in assay [4], 64 µg/mL (≈ 167 µM) in assay [5] and 16 µg/mL (≈ 41.8 µM) in assay [6].
As for `Nn1c(=O)c2cc(F)c(N3CC(O)(c4ccc(F)cc4)C3)c(Cl)c2n(C2CC2)c1=O` [drawing 121], the MIC was 32 µg/mL (≈ 73.6 µM) in assay [1], 64 µg/mL (≈ 147 µM) in assay [2] and 16 µg/mL (≈ 36.8 µM) in assay [3].
In the same order, the values of `Nc1nc(-n2c(=O)n(N)c(=O)c3cc(F)c(N4CC(O)C4)c(Cl)c32)c(F)cc1F` [drawing 117] are 1 µg/mL (≈ 2.33 µM), 64 µg/mL (≈ 149 µM) and 4 µg/mL (≈ 9.33 µM).
In the same order, the values of `Nn1c(=O)c2cc(F)c(N3CC(O)(C4CC4)C3)c(Cl)c2n(C2CC2)c1=O` [drawing 120] are 0.03 µg/mL (≈ 0.0788 µM), 0.002 µg/mL (≈ 0.00525 µM) and 0.03 µg/mL (≈ 0.0788 µM).
As to `Cc1c(N2CC(O)C2)c(F)cc2c(=O)n(N)c(=O)n(C3CC3)c12` [drawing 124], the MIC in assay [4] is 32 µg/mL (≈ 99.9 µM); in assay [5], 16 µg/mL (≈ 49.9 µM); in assay [6], 1 µg/mL (≈ 3.12 µM).
As for `Cc1c(N2CC(CCO)C2)c(F)cc2c(=O)n(N)c(=O)n(C3CC3)c12` [drawing 119], the MIC amounted to 4 µg/mL (≈ 11.5 µM) in assay [1], 32 µg/mL (≈ 91.9 µM) in assay [2] and 4 µg/mL (≈ 11.5 µM) in assay [3].
Turning to `Nn1c(=O)c2cc(F)c(N3CC(O)(c4ccc(F)cc4)C3)c(Cl)c2n(C2CC2)c1=O` [drawing 127], the results for the MIC in assay [4], in assay [5] and in assay [6] were 16 µg/mL (≈ 36.8 µM), 8 µg/mL (≈ 18.4 µM) and 4 µg/mL (≈ 9.2 µM), respectively.
In the same order, the values of `Nc1nc(-n2c(=O)n(N)c(=O)c3cc(F)c(N4CC(O)C4)c(Cl)c32)c(F)cc1F` [drawing 123] are 16 µg/mL (≈ 37.3 µM), 16 µg/mL (≈ 37.3 µM) and 4 µg/mL (≈ 9.33 µM).
In the same order, the values of `Nn1c(=O)c2cc(F)c(N3CC(O)(C4CC4)C3)c(Cl)c2n(C2CC2)c1=O` [drawing 126] are 0.5 µg/mL (≈ 1.31 µM), 0.5 µg/mL (≈ 1.31 µM) and 0.03 µg/mL (≈ 0.0788 µM).
Take `CC(C)C1(O)CN(c2c(F)cc3c(=O)n(N)c(=O)n(C4CC4)c3c2Cl)C1` [drawing 122]: the MIC in assay [1] was determined as 32 µg/mL (≈ 83.6 µM); in assay [2] it was 64 µg/mL (≈ 167 µM); in assay [3], 32 µg/mL (≈ 83.6 µM).
`Cc1c(N2CC(CCO)C2)c(F)cc2c(=O)n(N)c(=O)n(C3CC3)c12` [drawing 125]: the MIC in assay [4] turned out to be 16 µg/mL (≈ 45.9 µM); in assay [5] it was 16 µg/mL (≈ 45.9 µM); in assay [6], 4 µg/mL (≈ 11.5 µM).
